ChEMBL document CHEMBL1151169, “New beta-caryophyllene-derived terpenoids from the soft coral Sinularia nanolobata” (2004)
In brackets after ≈: the same amount, converted by molar mass.

Key:
Type in all cases: functional
[1] = system: NCI-H661; test: Cytotoxicity against human NCI-H661 cells by MTT assay; details: read-out: ED50 (the source's name)
[2] = system: DLD-1; test: Cytotoxicity against human DLD1 cells by MTT assay; details: read-out: ED50 (the source's name)
[3] = Cytotoxicity against human HEPA 59T/VGH cells by MTT assay; details: read-out: ED50 (the source's name)
[4] = Cytotoxicity against human Medulloblastoma cells by MTT assay; details: Medulloblastoma cell, read-out: ED50 (the source's name)
[5] = system: KB; test: Cytotoxicity against human KB cells by MTT assay; details: read-out: ED50 (the source's name)
[6] = system: HeLa; test: Cytotoxicity against human HeLa cells by MTT assay; details: read-out: ED50 (the source's name)

In the case of `COc1cccc2c1C(=O)c1c(O)c3c(c(O)c1C2=O)C[C@@](O)(C(=O)CO)C[C@@H]3O[C@H]1C[C@H](N)[C@H](O)[C@H](C)O1` [DOXORUBICIN], the EC50 [1] is reported as 0.29 µg/mL (≈ 0.534 µM), the EC50 [2] is reported as 0.57 µg/mL (≈ 1.05 µM) and the EC50 [3] is reported as 0.47 µg/mL (≈ 0.865 µM). For the same compound, the EC50 [4] was 0.41 µg/mL (≈ 0.754 µM), the EC50 [5] was 0.25 µg/mL (≈ 0.46 µM) and the EC50 [6] was 0.22 µg/mL (≈ 0.405 µM).
